Test results taken from US7947684B2, “1-aroyl-piperidinyl benzamidines” (Aventis Pharmaceuticals Inc., priority 2000, dated 2011).
Counter-ions that a name gives are not always drawn.

The compounds below were run against Factor Xa (Homo sapiens, UniProt P00742) (assay: Enzyme assay, purified factor Xa, peptide-p-nitroanilide substrate). Settings: apparent Ki from IC50 by Cheng-Prusoff, room temperature, 1 nM enzyme.
Format: biochemical
Description: (§1) All enzyme assays are carried out at room temperature in 96-well microtiter plates using a final enzyme concentration of 1 nM. The concentrations of factor Xa and thrombin are determined by active site titration and the concentrations of all other enzymes are based on the protein concentration supplied by the manufacturer. Compounds according to the invention are dissolved in DMSO, diluted with their respective buffers and assayed at a maximal final DMSO concentration of 1.25%. Compound dilutions are added to wells containing buffer and enzyme and pre-equilibrated for between 5 and 30 minutes. The enzyme reactions are initiated by the addition of substrate and the color developed from the hydrolysis of the peptide-p-nitroanilide substrates is monitored continuously for 5 minutes at 405 nm on a Vmax microplate reader (Molecular Devices). Under these conditions, less than 10% of the substrate is utilized in all assays. […] The apparent Ki values are then determined according to the Cheng-Prusoff equation (IC50=Ki[1+[S]/Km]) assuming competitive inhibition kinetics.

Factor Xa, sequence (P00742 235-488 limits assumed): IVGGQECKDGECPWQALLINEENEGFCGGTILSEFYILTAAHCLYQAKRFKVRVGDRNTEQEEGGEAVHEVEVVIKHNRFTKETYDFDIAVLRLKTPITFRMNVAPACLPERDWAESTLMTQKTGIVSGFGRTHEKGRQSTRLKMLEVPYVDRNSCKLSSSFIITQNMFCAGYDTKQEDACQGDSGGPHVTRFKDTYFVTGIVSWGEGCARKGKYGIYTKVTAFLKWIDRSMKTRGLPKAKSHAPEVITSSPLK
Factor Xa, sequence (P00742 41-179 partner limits assumed): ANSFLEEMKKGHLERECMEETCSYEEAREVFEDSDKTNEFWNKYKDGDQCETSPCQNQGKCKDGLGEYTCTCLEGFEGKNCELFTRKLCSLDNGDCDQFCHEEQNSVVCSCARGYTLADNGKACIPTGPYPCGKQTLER

SMILES	Ki
N=C(N)c1cccc(C2=CCN(C(=O)c3ccc(-c4cccnc4)cc3)CC2)c1 [Example 8, 3-[1-(4-Pyridin-3-yl-benzoyl)-1,2,3,6-tetrahydropyridin-4-yl]benzamidine ditrifluoroacetate]	5 nM
N=C(N)c1cccc(C2=CCN(C(=O)c3ccc(-c4ccc(Br)o4)cc3)CC2)c1 [Example 10, 3-{1-[4-(5-Bromofuran-2-yl)-benzoyl]-1,2,3,6-tetrahydropyridin-4-yl}benzamidine trifluoroacetate]	34 nM
N=C(N)c1cccc(C2=CCN(C(=O)c3ccc(-c4ccc(Cl)s4)cc3)CC2)c1 [Example 11, 3-{1-[4-(5-Chlorothiophen-2-yl)-benzoyl]-1,2,3,6-tetrahydropyridin-4-yl}benzamidine trifluoroacetate]	688 nM
N=C(N)c1cccc(C2=CCN(C(=O)c3ccc(-c4ncccn4)cc3)CC2)c1 [Example 16, 3-[1-(4-Pyrimidin-2-ylbenzoyl)-1,2,3,6-tetrahydropyridin-4-yl]-benzamidine ditrifluoroacetate]	63 nM
N=C(N)c1cccc(C2CCN(C(=O)c3ccc(-c4ccccn4)cc3)CC2)c1 [Example 25, 3-[1-(4-Pyridin-2-ylbenzoyl)-piperidin-4-yl]benzamidine ditrifluoroacetate]	9 nM
NC(=O)c1cccc(-c2ccc(C(=O)N3CCC(c4ccc5ccnc(N)c5c4)CC3)cc2)c1 [Example 35, 4′-[4-(1-Aminoisoquinolin-7-yl)piperidine-1-carbonyl]biphenyl-3-carboxylic acid amide trifluoroacetate]	570 nM
Nc1nccc2ccc(C3=CCN(C(=O)c4ccc(-c5ccc(=O)[nH]c5)cc4)CC3)cc12 [Example 39, 5-{4-[4-(1-Aminoisoquinolin-7-yl)-3,6-dihydro-2H-pyridine-1-carbonyl]phenyl}-1H-pyridin-2-one trifluoroacetate]	140 nM
Nc1nccc2[nH]c(C3CCN(C(=O)c4ccc(-c5ccc(=O)[nH]c5)cc4)CC3)cc12 [Example 44, 5-{4-[4-(4-Amino-1H-pyrrolo[3,2-c]pyridin-2-yl)piperidine-1-carbonyl]phenyl}-1H-pyridin-2-one trifluoroacetate]	990 nM

The compounds below were run against human lung tryptase or recombinant human β tryptase (assay: Tryptase inhibition activity, S2366 substrate). Settings: room temperature, 0.5 mM substrate.
Format: biochemical
Description: as §1
Tryptase inhibition activity is confirmed using either isolated human lung tryptase or recombinant human β tryptase expressed in yeast cells. Essentially equivalent results are obtained using isolated native enzyme or the expressed enzyme. […]

SMILES	Ki
N=C(N)c1cccc(C2=CCN(C(=O)c3cncc(C#Cc4ccccc4)c3)CC2)c1 [Example 47, 3-[1-(5-Phenylethynyl-pyridine-3-carbonyl)-1,2,3,6-tetrahydropyridin-4-yl]-benzamidine hydrochloride]	183 nM
N=C(N)c1cccc(N2CCN(C(=O)c3cncc(CCc4ccccc4)c3)CC2)c1 [Example 49, 3-[4-(5-Phenylethyl-pyridine-3-carbonyl)-piperazin-1-yl]-benzamidine di-hydrochloride]	1070 nM
